This is an account of results in patent US8969542B2, “HPV polyepitope constructs and uses thereof” (priority 2007, dated 2015).

Where no end group is shown, it is not given here. Some results are limits rather than exact numbers.

One assay addresses HLA A2601 (Homo sapiens, UniProt P04439, A114D/A173T/A270S/D101N/D185E/E277Q/E87N/F33Y/G231S/I121R/I218V/K168Q/L180W/L300P/L318F/P208A/P217A/Q86R/Q94H/R138Q/S129P/T187R/T323A/T345S/V100A/V358M). Briefly: HLA class I competition binding assay using soluble HLA.
For the next assay, the target named is HLA A0101 (Homo sapiens, UniProt P04439, A114D/A174V/A182V/D101N/D185E/E176A/E190D/L180R/Q94H/R68K/S129P/T187R/V100A/V91M/W191G). The assay is described as above.
Another assay has as its target HLA A2902 (Homo sapiens, UniProt P04439, A270S/D101N/D185E/E176V/E277Q/E87Q/F33T/G231S/H175R/I121M/I218V/I322F/K168Q/L300P/L318F/M331R/P208A/P217A/Q86L/T323A/T345S/V100A/V358M). The description is as above.
A further assay addresses HLA A3002 (Homo sapiens, UniProt P04439, D101N/D140H/D185E/E176R/F33S/G80R/H175R/K168Q/Q94H/R138E/R41S/V100E). The assay is described as above.
In a further assay the target is DRB1*1101 (DR5) (Homo sapiens, UniProt P01903+P01911, A100R/A169T/A87E/I96F/K41T/L162R/M171V/P40S/Q125H/Q178H/Q39Y/Q99D/R42S/S66Y/T262R/V115G/W38E). Briefly: biochemical.
The next assay concerns the target DRB1*0802 (DR8w2) (Homo sapiens, UniProt P01903+P01911, A100R/A103L/A169T/F76Y/H45Y/I96F/K41T/L162R/M171V/P40S/Q125H/Q178H/Q39Y/Q99D/R218S/R42G/S66Y/V115G/W38E). The assay can be described thus: biochemical.
A further assay concerns the target DRB5*0101 (DR2w2beta-2) (Homo sapiens, UniProt P01903+Q30154). The assay can be described thus: biochemical.
Another assay addresses DRB1*0301 (DR3) (Homo sapiens, UniProt P01903+P01911, A100K/A102G/A103R/A169T/F55Y/I96L/K41T/L162R/M171V/P40S/Q125H/Q178H/Q39Y/R42S/S66N/T106N/T262R/W38E/Y61H). Briefly: biochemical.
Another assay addresses DRB1*0404 (DR4w14) (Homo sapiens, UniProt P01903+P01911, A100R/A169T/F76Y/I96L/K127E/L162R/M171V/N62H/P40V/Q125Y/R42H/S133A/S149N/S66Y/V209L/W38E). The assay can be described thus: biochemical.
The next assay has as its target DRB1*0901 (Homo sapiens, UniProt P01903+P01911, A100R/A103E/D57H/D86V/F55Y/F60I/F76Y/I96F/K127E/L162R/M171V/P40D/Q125H/Q99R/R33Q/R42F/S133A/S66N/T210M/V115G/W38K/Y107V/Y59G/Y89S). Briefly: biochemical.
The target in another assay is DRB4*0101 (DRw53) (Homo sapiens, UniProt P01903+P13762, G164S). The assay can be described thus: biochemical.
For the next assay, the target named is DRB1*0405 (DR4w15) (Homo sapiens, UniProt P01903+P01911, A100R/A169T/D86S/F76Y/I96L/K127E/L162R/M171V/N62H/P40V/Q125Y/R42H/S133A/S149N/S66Y/V115G/V209L/W38E). The assay can be described thus: biochemical.
A further assay deals with DRB1*0701 (DR7) (Homo sapiens, UniProt P01903+P01911, A100R/A102G/A103Q/D57E/D86V/E43K/F76Y/K127E/L162R/M171V/P40G/Q125H/Q99D/R33Q/R42Y/R54Q/S133A/S66F/T210M/V115G/Y107V/Y59L/Y89S). Briefly: biochemical.
For a further assay, the target named is DRB1*0101 (DR1) (Homo sapiens, UniProt P01903+P01911, A100R/D57E/F55L/F60I/F76Y/I96L/L162R/M171V/P40L/Q125E/R42F/V115G/Y59C). Briefly: biochemical.
The next assay addresses DRB1*0401 (DR4w4) (Homo sapiens, UniProt P01903+P01911, A100K/A169T/F76Y/I96L/K127E/L162R/M171V/N62H/P40V/Q125Y/R42H/S133A/S149N/S66Y/V115G/V209L/W38E). The assay can be described thus: biochemical.
Another assay concerns the target DRB1*1501 (DR2w2beta-1) (Homo sapiens, UniProt P01903+P01911). The assay can be described thus: biochemical.

Turning to STDLRDHIDY [compound 3], the results for the IC50 on HLA A2601 and on HLA A0101 were 758 nM and 113 nM, respectively.
With `C[C@@H](O)[C@H](NC(=O)CN)C(=O)NCC(=O)N[C@@H](CS)C(=O)N[C@@H](CC(N)=O)C(=O)NCC(=O)N[C@@H](Cc1c[nH]c2ccccc12)C(=O)N[C@@H](Cc1ccccc1)C(=O)N[C@@H](Cc1ccc(O)cc1)C(=O)O` [compound 23], the IC50 at HLA A2601 is 3080 nM; on HLA A2902, 116 nM; at HLA A0101, 136 nM; on HLA A3002 it was 9.1 nM.
As to QVDYYGLYY [compound 2], the IC50 on HLA A2601 was 251 nM; at HLA A0101, 2.7 nM; on HLA A3002, 160 nM.
Turning to DWVMAIFGVNPTVAEGF [compound 114], the concentration for half-maximal inhibition (IC50) is 4960 nM against DRB1*1101 (DR5); 4270 nM at DRB1*0802 (DR8w2); 387 nM at DRB5*0101 (DR2w2beta-2); 3750 nM against DRB1*0301 (DR3); 20 nM at DRB1*0404 (DR4w14); 17900 nM against DRB1*0901. For the same compound, the IC50 was 571 nM against DRB4*0101 (DRw53) and 92 nM at DRB1*0405 (DR4w15).
On to `CC[C@H](C)[C@H](N)C(=O)N[C@@H](CCC(=O)O)C(=O)N[C@@H](Cc1ccccc1)C(=O)N[C@H](C(=O)N[C@H](C(=O)N[C@@H](Cc1ccccc1)C(=O)N[C@@H](CC(C)C)C(=O)NCC(=O)N[C@@H](C)C(=O)N[C@@H](CC(C)C)C(=O)N[C@@H](CCCCN)C(=O)N[C@@H](CO)C(=O)N[C@@H](Cc1ccccc1)C(=O)N[C@@H](CC(C)C)C(=O)N[C@@H](CCCCN)C(=O)O)[C@@H](C)O)[C@@H](C)CC` [compound 99], for which the IC50 at DRB1*0701 (DR7) is above 20000 nM; on DRB1*0301 (DR3) it was above 20000 nM; against DRB1*0101 (DR1) it was 30 nM; at DRB1*0901, above 20000 nM; on DRB1*0405 (DR4w15) it was 3650 nM.
Consider `CC[C@H](C)[C@H](NC(=O)[C@H](C)NC(=O)[C@H](CCCCN)NC(=O)[C@@H](N)Cc1c[nH]cn1)C(=O)N[C@@H](CCC(=O)O)C(=O)N[C@@H](CC(C)C)C(=O)N[C@@H](CCC(N)=O)C(=O)N[C@@H](CCSC)C(=O)N[C@@H](C)C(=O)N[C@@H](CC(C)C)C(=O)N[C@@H](CCC(N)=O)C(=O)NCC(=O)N[C@@H](CC(C)C)C(=O)N[C@@H](C)C(=O)N[C@@H](CCC(N)=O)C(=O)O` [compound 101], for which the values for the IC50 on DRB1*0401 (DR4w4) and on DRB4*0101 (DRw53) were 50 nM and 3 nM, respectively.
For the compound `CC[C@H](C)[C@H](N)C(=O)N[C@@H](CCCNC(=N)N)C(=O)N[C@H](C(=O)N[C@@H](CC(C)C)C(=O)N[C@@H](CCC(N)=O)C(=O)N[C@@H](CCC(=O)O)C(=O)N[C@@H](CC(C)C)C(=O)N[C@@H](CC(C)C)C(=O)N[C@@H](CCSC)C(=O)NCC(=O)N[C@@H](CO)C(=O)N[C@@H](Cc1ccccc1)C(=O)NCC(=O)N[C@H](C(=O)N[C@H](C(=O)O)C(C)C)[C@@H](C)CC)[C@@H](C)CC` [compound 112], the IC50 on DRB1*0101 (DR1) stood at 50 nM.
On to WKHIRLECVLMYKAR [compound 108], for which the IC50 on DRB1*1101 (DR5) came to 81 nM; against DRB1*0802 (DR8w2), 476 nM; on DRB1*0701 (DR7), 16400 nM; on DRB5*0101 (DR2w2beta-2) it was 412 nM; at DRB1*1501 (DR2w2beta-1) it was 134 nM; against DRB1*0301 (DR3), 146 nM. The IC50 was found to be 263 nM against DRB1*0401 (DR4w4), 11800 nM on DRB1*0901, 102 nM against DRB4*0101 (DRw53) and 71 nM against DRB1*0405 (DR4w15).
NGWFYVEAVIDRQTG [compound 106]: the IC50 was found to be 1460 nM against DRB1*0701 (DR7); 1200 nM at DRB5*0101 (DR2w2beta-2); 2800 nM against DRB1*0301 (DR3); 1860 nM against DRB1*0101 (DR1); 845 nM against DRB1*0401 (DR4w4); 3670 nM on DRB1*0901. The same compound showed an IC50 against DRB1*0405 (DR4w15) of 178 nM.

As a reminder, the IC50 is the concentration that inhibits the measured activity by half.
